From ChEMBL document CHEMBL4800726, “Data for DCP probe MSC-4381” (2021)

Biological target: T1, 5-hydroxytryptamine receptor 1A (Homo sapiens) (UniProt P08908)
T1 sequence (whole entry): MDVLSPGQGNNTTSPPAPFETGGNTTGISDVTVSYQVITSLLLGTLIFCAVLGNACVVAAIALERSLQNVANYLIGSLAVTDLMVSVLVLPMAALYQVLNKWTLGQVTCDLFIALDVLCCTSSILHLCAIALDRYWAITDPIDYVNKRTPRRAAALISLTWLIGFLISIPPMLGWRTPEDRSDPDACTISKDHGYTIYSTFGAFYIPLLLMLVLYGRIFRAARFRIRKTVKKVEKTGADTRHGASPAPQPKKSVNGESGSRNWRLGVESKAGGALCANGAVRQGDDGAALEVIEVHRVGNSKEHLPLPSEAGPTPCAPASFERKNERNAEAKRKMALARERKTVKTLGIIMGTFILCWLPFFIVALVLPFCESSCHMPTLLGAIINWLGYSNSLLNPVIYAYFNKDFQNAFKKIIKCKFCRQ
Assay: 5-HT1A (h) Eurofins-Cerep binding assay
Design: ligand concentration 0.5 nM
Conditions: filed as agonist, Compound concentration 10.0 uM

- % Inhibition of Control Specific Binding (Mean n=2): -58.9%
SMILES: CCOc1ccc(S(=O)(=O)Nc2ccc(Cl)cc2C#Cc2cnc(C(=O)O)cc2OC)c2ncccc12 [MSC-4381]
